Data reported in patent publication US20150197536A1, “COMPOUNDS REDUCING THE PRODUCTION OF SORBITOL IN THE EYE AND METHODS OF USING THE SAME” (THE REGENTS OF THE UNIVERSITY OF COLORADO, a body corporate, priority 2012, published 2015).

What was measured:
AKR1B10 = AKR1B10 (Homo sapiens, UniProt O60218); test: Aldo keto reductase specificity, AKR1B10; assay type: biochemical; details: FIG. 3B; result in words
AKR1A1 = target: T1, AKR1A1 (Homo sapiens, UniProt P14550); test: Aldo keto reductase specificity, AKR1A1; assay type: biochemical; details: FIG. 3B; result in words
T1 sequence (P14550 1-325): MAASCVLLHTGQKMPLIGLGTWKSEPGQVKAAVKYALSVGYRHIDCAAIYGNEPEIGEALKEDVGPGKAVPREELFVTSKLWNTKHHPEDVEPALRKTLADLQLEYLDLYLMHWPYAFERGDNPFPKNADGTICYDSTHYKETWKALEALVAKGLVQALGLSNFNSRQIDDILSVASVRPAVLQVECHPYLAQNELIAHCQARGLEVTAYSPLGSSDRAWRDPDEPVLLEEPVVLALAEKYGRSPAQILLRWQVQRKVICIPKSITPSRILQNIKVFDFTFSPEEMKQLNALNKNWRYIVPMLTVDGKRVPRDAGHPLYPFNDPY

[1] = test system: Raw264.7 murine macrophages; test: Sorbitol accumulation in Raw264.7 murine macrophages; assay type: cell-based; details: FIG. 4A/5A
[2] = test system: lenses of PAR40 transgenic mice that express human AKR1B1; test: Sorbitol accumulation in lenses of PAR40 transgenic mice cultured ex vivo; assay type: cell-based; details: PAR40 transgenic mice expressing human AKR1B1; hyperglycemic conditions; lenses excised and cultured ex vivo; FIG. 4B/5B
diabetic cataracts = details: active ingredient of gooseberry extracts; Puppala et al. 2012; cited from earlier work

Sequence of AKR1B10 (O60218 whole entry, species assumed): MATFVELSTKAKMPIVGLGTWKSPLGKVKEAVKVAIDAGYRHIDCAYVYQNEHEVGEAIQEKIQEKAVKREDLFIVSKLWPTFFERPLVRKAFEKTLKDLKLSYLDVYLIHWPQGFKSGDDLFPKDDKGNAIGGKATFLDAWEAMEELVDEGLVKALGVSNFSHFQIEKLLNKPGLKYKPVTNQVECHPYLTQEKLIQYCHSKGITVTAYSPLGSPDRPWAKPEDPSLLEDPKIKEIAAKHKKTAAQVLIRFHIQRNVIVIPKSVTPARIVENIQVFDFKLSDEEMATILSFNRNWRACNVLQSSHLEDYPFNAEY

SMILES	specificity for AKR1B1 over AKR1B10 (AKR1B10)	specificity for AKR1B1 over AKR1A1 (AKR1A1)	sorbitol accumulation [1]	sorbitol accumulation [2]	efficacy in slowing the progression of diabetic cataracts (diabetic cataracts)
O=C(N[C@@H]1O[C@H](CO)[C@@H](O)[C@H](O)[C@H]1O)c1cc(O)c(O)c(O)c1 [BGA, 1-deoxy-1-(3,4,5-trihydroxybenzamido)-β-D-glucopyranose]	displays specificity for AKR1B1 over other aldo keto reductase enzymes	displays specificity for AKR1B1 over other aldo keto reductase enzymes	blocks sorbitol accumulation	blocks sorbitol accumulation	–
O=C(O[C@@H]1O[C@H](CO)[C@@H](O)[C@H](O)[C@H]1O)c1cc(O)c(O)c(O)c1 [BGG, 1-O-(3,4,5-trihydroxybenzoyl)-β-D-glucopyranose]	–	–	–	–	efficacy in slowing the progression of diabetic cataracts
